Assay results reported in patent US20230295201A1 (Gilead Sciences, Inc., priority 2020, published 2023).
Read-outs that look alike come from different tables or passages of the source.

Assays:
Assay type in all cases: cell-based
HRV1a = test: HRV1A HELA EC50 (cytopathic effect in H1-HeLa cells); conditions: 96 h, read-out: HRV1A HELA EC50
Procedure: H1-HeLa cells, cultured in complete RPMI 1640 medium containing 10% heat-inactivated FBS and 1% Penicillin/Streptomycin, were seeded in 96 well plates at 5000 cells/well one day prior to compound dosing and infection. The antiviral activity of each compound was measured in triplicate. Compounds were added directly to the cell cultures in serial 3-fold dilutions using the HP300 digital dispenser (Hewlett Packard, Palo Alto, CA) immediately prior to infection. The plates were transferred to BSL-2 containment and 100 μL of 1/4000 dilution of HRV1a virus stock was added to each well containing cells and serially diluted compounds. Each plate included 6 wells of infected untreated cells and 6 wells of cells containing 5 μM Rupintrivir that served as 0% and 100% virus inhibition control, respectively. Following the infection, test plates were incubated for 96 h in a tissue culture incubator set to 37° C./5% CO2. Following incubation, the H1-HeLa cells were removed from incubation and allowed to equilibrate to 25° C. Cell viability was determined by removing 100 μL of culture medium and adding 100 μL of Cell-Titer Glo viability reagent. The mixtures were incubated on a shaker for 10 minutes at 25° C., and the luminescence signal was quantified on an Envision luminescence plate reader.

[1] = system: Dengue serotype 2 New Guinea C (NGC) strain; test: DENV-2 Huh-7 EC50 (qPCR in Huh7 cells); conditions: Dengue virus, DENV2, Huh-7, 48 h
Outline: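 Huh7 cells infected 2 h at 37 °C with DENV-2 NGC at MOI 0.1, then plated with graded compound doses (0.25% DMSO) in triplicate. After 48 h, viral RNA quantified by duplex TaqMan RT-qPCR against GAPDH; EC50 normalized to positive control and no-compound wells.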

HCV replicon 1B = test: HCV Rep 1B EC50 (replicon luciferase); conditions: Hepatitis C virus, 72 h
Procedure: (§1) Compounds were serially diluted in ten steps of 1:3 dilutions in 384-well plates. All serial dilutions were performed in four replicates per compound within the same 384-well plate. […] To each well of a black polystyrene 384-well plate (Greiner Bio-one, Monroe, NC), 90 μL of cell culture medium (without Geneticin) containing 2000 suspended HCV replicon cells was added with a Biotek μFlow workstation. For compound transfer into cell culture plates, 0.4 μL of compound solution from the compound serial dilution plate was transferred to the cell culture plate on a Biomek FX workstation. The DMSO concentration in the final assay wells was 0.44%. The plates were incubated for 3 days at 37° C. with 5% CO2 and 85% humidity. The HCV replicon assay was a multiplex assay, able to assess both cytotoxicity and antireplicon activity from the same well. The CC50 assay was performed first. The media in the 384-well cell culture plate was aspirated, and the wells were washed four times with 100 μL of PBS each, using a Biotek ELX405 plate washer. A volume of 50 μL of a solution containing 400 nM calcein AM (Anaspec, Fremont, CA) in 1×PBS was added to each well of the plate with a Biotek μFlow workstation. The plate was incubated for 30 min at room temperature before the fluorescence signal (excitation 490 nm, emission 520 nm) was measured with a Perkin-Elmer Envision plate reader. The EC50 assay was performed in the same wells as the CC50 assay. The calcein-PBS solution in the 384-well cell culture plate was aspirated with a Biotek ELX405 plate washer. A volume of 20 μL of Dual-Glo luciferase buffer (Promega, Madison, WI) was added to each well of the plate with a Biotek μFlow Workstation. The plate was incubated for 10 min at room temperature. A volume of 20 μL of a solution containing a 1:100 mixture of Dual-Glo Stop & Glo substrate (Promega, Madison, WI) and Dual-Glo Stop & Glo buffer (Promega, Madison, WI) was added to each well of the plate with a Biotek μFlow Workstation. The plate was then incubated at room temperature for 10 min before the luminescence signal was measured with a Perkin-Elmer Envision Plate Reader.

HCV replicon 2A = test: HCV Rep 2A EC50 (replicon luciferase); conditions: Hepatitis C virus, 72 h
Procedure: as §1

[2] = system: Dengue 2, New Guinea strain (NGC); test: DENV-2 moDC EC50 (qPCR in human monocyte-derived dendritic cells); conditions: Dengue virus, DENV2, Dendritic cell; moDCs, 48 hours
Procedure: Human monocyte-derived dendritic cells (moDCs) were derived from CD14+ monocytes (AllCells) cultured in Human Mo-DC Differentiation medium containing GM-CSF and IL-4 (Miltenyi Biotec). On day 7, moDCs were harvested by mechanical disruption, washed and suspended in serum-free RPMI. moDCs were infected with Vero-derived Dengue 2, New Guinea strain (NGC) at a MOI=0.1 for two hours in serum-free RPMI with gentle agitation at 37° C. Cells were washed and resuspended in 10% serum-containing RPMI (Gibco, supplemented with sodium pyruvate, NEAA, Penicillin-Streptomycin). 10^5 cells were plated in triplicate in 96-well plates with compounds dispensed at graded doses (Hewlett-Packard D300 Digital Dispenser). All wells were normalized to 0.25% DMSO. At 48 hours, cells were washed with 1×PBS and all supernatants removed. Total RNA was extracted using RNEasy 96 plates (Qiagen) and used to generate first-strand cDNA using XLT cDNA 5× Supermix (QuantaBio). cDNA was used as a template in a Taqman qPCR duplex reaction specific to DENV2 viral and GAPDH gene expression. EC50 values were determined using Prism Graphpad software, with normalization to a positive control and no compound negative control wells.

[3] = read-out: HCV Rep 1B EC50, replicon cells, 3 days
[4] = read-out: HCV Rep 2A EC50, replicon cells, 3 days

SMILES | EC50 (HRV1a) [nM] | EC50 (HCV replicon 1B; [3]) [nM] | EC50 (HCV replicon 2A; [4]) [nM] | also measured
C[C@H](NP(=O)(OC[C@@]1(C#N)O[C@@H](c2ccc3c(N)ncnn23)[C@H](O)[C@@H]1O)Oc1ccccc1)C(=O)OCC1CC1 (mixture of isomers) [Example 8, (2S)-cyclopropylmethyl 2-(((((2R,3S,4R,5S)-5-(4-aminopyrrolo[2,1-f][1,2,4]triazin-7-yl)-2-cyano-3,4-dihydroxytetrahydrofuran-2-yl)methoxy)(phenoxy)phosphoryl)amino)propanoate] | 211 | – | – | –
CC(C)OC(=O)[C@H](C)NP(=O)(OC[C@@]1(C#N)O[C@@H](c2ccc3c(N)ncnn23)[C@H](O)[C@@H]1O)Oc1ccccc1 (mixture of isomers) [Example 77, Isopropyl ((((2R,3S,4R,5S)-5-(4-aminopyrrolo[2,1-f][1,2,4]triazin-7-yl)-2-cyano-3,4-dihydroxytetrahydrofuran-2-yl)methoxy)(phenoxy)phosphoryl)-L-alaninate] | 736 | – | – | –
CCC(CC)COC(=O)[C@H](CC)NP(=O)(OC[C@@]1(C#N)O[C@@H](c2ccc3c(N)ncnn23)[C@H](O)[C@@H]1O)Oc1ccccc1 (mixture of isomers) [Example 88, (2S)-2-ethylbutyl 2-(((((2R,3S,4R,5S)-5-(4-aminopyrrolo[2,1-f][1,2,4]triazin-7-yl)-2-cyano-3,4-dihydroxytetrahydrofuran-2-yl)methoxy)(phenoxy)phosphoryl)amino)butanoate] | 581 | 23700 | 27700 | EC50 [1]: > 25000 nM
CC[C@H](NP(=O)(OC[C@@]1(C#N)O[C@@H](c2ccc3c(N)ncnn23)[C@H](O)[C@@H]1O)Oc1ccccc1)C(=O)OC1CCCCC1 (mixture of isomers) [Example 103, (2S)-cyclohexyl 2-(((((2R,3S,4R,5S)-5-(4-aminopyrrolo[2,1-f][1,2,4]triazin-7-yl)-2-cyano-3,4-dihydroxytetrahydrofuran-2-yl)methoxy)(phenoxy)phosphoryl)amino)butanoate] | 1020 | – | – | –
C[C@H](NP(=O)(OC[C@@]1(C#N)O[C@@H](c2ccc3c(N)ncnn23)[C@H](O)[C@@H]1O)Oc1ccccc1)C(=O)OC1CCCCC1 (stereo partly drawn) [Example 4, (2S)-cyclohexyl 2-(((((2R,3S,4R,5S)-5-(4-aminopyrrolo[2,1-f][1,2,4]triazin-7-yl)-2-cyano-3,4-dihydroxytetrahydrofuran-2-yl)methoxy)(phenoxy)phosphoryl)amino)propanoate] | 190 | 52700 | 9200 | –
CCC(CC)COC(=O)[C@@H](C)NP(=O)(OC[C@@]1(C#N)O[C@@H](c2ccc3c(N)ncnn23)[C@H](O)[C@@H]1O)Oc1ccccc1 (stereo partly drawn) [Example 82, (2R)-2-ethylbutyl 2-(((((2R,3S,4R,5S)-5-(4-aminopyrrolo[2,1-f][1,2,4]triazin-7-yl)-2-cyano-3,4-dihydroxytetrahydrofuran-2-yl)methoxy)(phenoxy)phosphoryl)amino)propanoate] | 2780 | – | – | –
C[C@H](NP(=O)(OC[C@@]1(C#N)O[C@@H](c2ccc3c(N)ncnn23)[C@H](O)[C@@H]1O)Oc1ccccc1)C(=O)OCC(C)(C)C (stereo partly drawn) [Example 92, (2S)-neopentyl 2-(((((2R,3S,4R,5S)-5-(4-aminopyrrolo[2,1-f][1,2,4]triazin-7-yl)-2-cyano-3,4-dihydroxytetrahydrofuran-2-yl)methoxy)(phenoxy)phosphoryl)amino)propanoate] | 97 | 16500 | 2900 | –
CCCCCCCCCCCCCCCCCCOC[C@H](COP(=O)(O)OC[C@@]1(C#N)O[C@@H](c2ccc3c(N)ncnn23)[C@H](O)[C@@H]1O)OCc1ccccc1 [Example 96, ((2R,3S,4R,5S)-5-(4-aminopyrrolo[2,1-f][1,2,4]triazin-7-yl)-2-cyano-3,4-dihydroxytetrahydrofuran-2-yl)methyl ((R)-2-(benzyloxy)-3-(octadecyloxy)propyl) hydrogen phosphate] | – | – | – | EC50 (HRV1a; H1-HeLa cells): 1580 nM; EC50 [2]: > 25000 nM; EC50 (HCV replicon 1B; replicon cells, 3 days, read-out: HCV Rep 1B EC50): 30700 nM; EC50 (HCV replicon 2A; replicon cells, 3 days, read-out: HCV Rep 2A EC50): 47300 nM
CCC(CC)OC(=O)[C@H](C)NP(=O)(OC[C@@]1(C#N)O[C@@H](c2ccc3c(N)ncnn23)[C@H](O)[C@@H]1O)Oc1ccccc1 (stereo partly drawn) [Example 101, (2S)-pentan-3-yl 2-(((((2R,3S,4R,5S)-5-(4-aminopyrrolo[2,1-f][1,2,4]triazin-7-yl)-2-cyano-3,4-dihydroxytetrahydrofuran-2-yl)methoxy)(phenoxy)phosphoryl)amino)propanoate] | 1630 | – | – | –
